# Reference: US8686150B2 (Sanofi, priority 2011, dated 2014)
# Molecular target: T1, human full-length recombinant PKC βII (Homo sapiens, UniProt P05771)
# T1 construct: Active human full-length recombinant PKC βII; purchased Invitrogen GmbH, Darmstadt, Germany
# Test: Determination of PKC βII inhibition (Caliper mobility-shift kinase assay, Fluorescein-RFARKGSLRQKNV peptide substrate)
# Type: biochemical
# Conditions: example compounds at a final concentration of 1.14 μM (±0.15 μM)
# In short: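 Full-length PKC βII (30 ng/ml in pre-dilution) with PS/DAG/Ca2+ activators, pH 7.4; fluorescein peptide and ATP at 3 μM and 120 μM before mixing. Reaction ran 60 min at 32 °C, was EDTA-stopped, and was read by mobility shift. % inhibition came from product/(substrate+product) peak heights, tested at 1.14 μM final.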
# T1 sequence (P05771 1-673 isoform P05771-2): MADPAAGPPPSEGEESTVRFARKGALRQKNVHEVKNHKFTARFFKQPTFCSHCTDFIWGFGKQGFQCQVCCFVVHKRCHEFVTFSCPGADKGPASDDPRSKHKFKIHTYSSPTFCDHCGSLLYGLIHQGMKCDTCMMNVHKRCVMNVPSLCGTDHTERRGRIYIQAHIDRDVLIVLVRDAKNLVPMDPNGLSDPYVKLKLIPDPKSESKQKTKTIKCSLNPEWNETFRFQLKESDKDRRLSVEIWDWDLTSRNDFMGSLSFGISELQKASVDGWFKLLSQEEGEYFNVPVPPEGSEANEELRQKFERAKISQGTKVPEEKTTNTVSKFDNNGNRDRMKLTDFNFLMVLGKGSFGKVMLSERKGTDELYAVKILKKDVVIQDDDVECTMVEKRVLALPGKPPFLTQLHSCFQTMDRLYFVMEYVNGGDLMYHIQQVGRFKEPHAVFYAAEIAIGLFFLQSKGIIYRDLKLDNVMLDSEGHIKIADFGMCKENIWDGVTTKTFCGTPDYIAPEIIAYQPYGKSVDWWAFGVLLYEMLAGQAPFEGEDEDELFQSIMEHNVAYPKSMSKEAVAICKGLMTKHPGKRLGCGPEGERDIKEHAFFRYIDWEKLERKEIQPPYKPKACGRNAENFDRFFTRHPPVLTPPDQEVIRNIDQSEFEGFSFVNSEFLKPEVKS
Compound,inhibition at 1.14 µM [%],% Inhibition [%]
"Cc1n[nH]c2nc(-c3ccc(O)cc3)cc(C(=O)NCCC3CCCN3C)c12 (stereo not drawn) [Example 218, 6-(4-Hydroxy-phenyl)-3-methyl-1H-pyrazolo[3,4-b]pyridine-4-carboxylic acid [2-(1-methyl-pyrrolidin-2-yl)-ethyl]-amide]",85,
"Cc1n[nH]c2nc(-c3ccc(O)cc3)cc(C(=O)NC(CN)c3ccccc3)c12 (stereo not drawn) [Example 104, 6-(4-Hydroxy-phenyl)-3-methyl-1H-pyrazolo[3,4-b]pyridine-4-carboxylic acid (2-amino-1-phenyl-ethyl)-amide]",94,
"O=C(c1cc(-c2ccc(O)cc2)nc2[nH]nc(C3CC3)c12)N1CCNCC1 [Example 55, [3-Cyclopropyl-6-(4-hydroxy-phenyl)-1H-pyrazolo[3,4-b]pyridin-4-yl]-piperazin-1-yl-methanone]",27,
"Cc1n[nH]c2nc(-c3ccc(O)cc3F)cc(C(=O)N3CC(C)(C)NCC3(C)C)c12 [Example 63, [6-(2-Fluoro-4-hydroxy-phenyl)-3-methyl-1H-pyrazolo[3,4-b]pyridin-4-yl]-(2,2,5,5-tetramethyl-piperazin-1-yl)-methanone]",100,
"Cc1n[nH]c2nc(-c3ccc(O)cc3)cc(C(=O)NC3CCN(Cc4ccccc4)C3)c12 (stereo not drawn) [Example 384, 6-(4-Hydroxy-phenyl)-3-methyl-1H-pyrazolo[3,4-b]pyridine-4-carboxylic acid (1-benzyl-pyrrolidin-3-yl)-amide]",67,
"Cc1n[nH]c2nc(-c3ccc(O)cc3)cc(C(=O)N3CCN(C(C)C)CC3)c12 [Example 36, [6-(4-Hydroxy-phenyl)-3-methyl-1H-pyrazolo[3,4-b]pyridin-4-yl]-(4-isopropyl-piperazin-1-yl)-methanone]",40,
"Cc1n[nH]c2nc(-c3ccc(O)cc3)cc(C(=O)NC3CC4(CCNCC4)c4ccccc43)c12 (stereo not drawn) [Example 373, 6-(4-Hydroxy-phenyl)-3-methyl-1H-pyrazolo[3,4-b]pyridine-4-carboxylic acid (2,3-dihydro-spiro[1H-indene-1,4′-piperidin]-3-yl)-amide]",96,
"CCCC1(N)CCN(C(=O)c2cc(-c3ccc(O)cc3)nc3[nH]nc(C)c23)C1 (stereo not drawn) [Example 47, (3-Amino-3-propyl-pyrrolidin-1-yl)-[6-(4-hydroxy-phenyl)-3-methyl-1H-pyrazolo[3,4-b]pyridin-4-yl]-methanone]",70,
"Cc1n[nH]c2nc(-c3ccc(O)cc3)cc(C(=O)NC3CC4CCC(C3)N4C)c12 [Example 201, 6-(4-Hydroxy-phenyl)-3-methyl-1H-pyrazolo[3,4-b]pyridine-4-carboxylic acid ((3R)-8-methyl-8-aza-bicyclo[3.2.1]oct-3-yl)-amide]",,55
"Cc1n[nH]c2nc(-c3ccc(O)cc3F)cc(C(=O)N3C[C@@H](C)N(Cc4ccccn4)C[C@@H]3C)c12 [Example 452, ((2S,5R)-2,5-Dimethyl-4-pyridin-2-ylmethyl-piperazin-1-yl)-[6-(2-fluoro-4-hydroxy-phenyl)-3-methyl-1H-pyrazolo[3,4-b]pyridin-4-yl]-methanone]",83,

# Continued, in another order:
inhibition at 1.14 µM [%],Compound,% Inhibition [%]
36,"Cc1n[nH]c2nc(-c3ccc(O)c(F)c3)cc(C(=O)NCC3CCC(=O)N3)c12 (stereo not drawn) [Example 359, 6-(3-Fluoro-4-hydroxy-phenyl)-3-methyl-1H-pyrazolo[3,4-b]pyridine-4-carboxylic acid (5-oxo-pyrrolidin-2-ylmethyl)-amide]",
95,"Cc1n[nH]c2nc(-c3ccc(O)cc3)cc(C(=O)N3CCNCC3c3ccc(F)c(F)c3)c12 (stereo not drawn) [Example 92, [2-(3,4-Difluoro-phenyl)-piperazin-1-yl]-[6-(4-hydroxy-phenyl)-3-methyl-1H-pyrazolo[3,4-b]pyridin-4-yl]-methanone]",
99,"Cc1n[nH]c2nc(-c3ccc(O)c(F)c3)cc(C(=O)N3CCNC[C@@H]3C)c12 [Example 313, [6-(3-Fluoro-4-hydroxy-phenyl)-3-methyl-1H-pyrazolo[3,4-b]pyridin-4-yl]-((S)-2-methyl-piperazin-1-yl)-methanone]",
100,"COc1ccc(C2CNCCN2C(=O)c2cc(-c3ccc(O)cc3)nc3[nH]nc(C)c23)cc1 (stereo not drawn) [Example 69, [6-(4-Hydroxy-phenyl)-3-methyl-1H-pyrazolo[3,4-b]pyridin-4-yl]-[2-(4-methoxy-phenyl)-piperazin-1-yl]-methanone]",
44,"Cc1n[nH]c2nc(-c3ccc(O)c(F)c3)cc(C(=O)N3CC[C@H](N(C)C)C3)c12 [Example 348, ((S)-3-Dimethylamino-pyrrolidin-1-yl)-[6-(3-fluoro-4-hydroxy-phenyl)-3-methyl-1H-pyrazolo[3,4-b]pyridin-4-yl]-methanone]",
61,"Cc1n[nH]c2nc(-c3ccc(O)c(F)c3)cc(C(=O)N(C)C3CCNCC3)c12 [Example 335, 6-(3-Fluoro-4-hydroxy-phenyl)-3-methyl-1H-pyrazolo[3,4-b]pyridine-4-carboxylic acid methyl-piperidin-4-yl-amide]",
81,"Cc1n[nH]c2nc(-c3ccc(O)cc3)cc(C(=O)NC3CNCC3C)c12 (stereo not drawn) [Example 43, 6-(4-Hydroxy-phenyl)-3-methyl-1H-pyrazolo[3,4-b]pyridine-4-carboxylic acid (4-methyl-pyrrolidin-3-yl)-amide]",
98,"Cc1n[nH]c2nc(-c3ccc(O)cc3F)cc(C(=O)N3CCNCC34CC4)c12 [Example 64, (4,7-Diaza-spiro[2.5]oct-4-yl)-[6-(2-fluoro-4-hydroxy-phenyl)-3-methyl-1H-pyrazolo[3,4-b]pyridin-4-yl]-methanone]",
49,"Cc1n[nH]c2nc(-c3ccc(O)c(F)c3)cc(C(=O)N3CCC4(CCNCC4)C3)c12 [Example 343, (2,8-Diaza-spiro[4.5]dec-2-yl)-[6-(3-fluoro-4-hydroxy-phenyl)-3-methyl-1H-pyrazolo[3,4-b]pyridin-4-yl]-methanone]",
29,"COc1cc(-c2cc(C(=O)N3CCNCC3)c3c(C)n[nH]c3n2)ccc1O [Example 10, [6-(4-Hydroxy-3-methoxy-phenyl)-3-methyl-1H-pyrazolo[3,4-b]pyridin-4-yl]-piperazin-1-yl-methanone]",
94,"COc1cccc(C2CNCCN2C(=O)c2cc(-c3ccc(O)cc3)nc3[nH]nc(C)c23)c1 (stereo not drawn) [Example 72, [6-(4-Hydroxy-phenyl)-3-methyl-1H-pyrazolo[3,4-b]pyridin-4-yl]-[2-(3-methoxy-phenyl)-piperazin-1-yl]-methanone]",
97,"Cc1n[nH]c2nc(-c3ccc(O)cc3F)cc(C(=O)N3CCN[C@@H](C)[C@H]3C)c12 (racemic) [Example 442, ((cis)-2,3-Dimethyl-piperazin-1-yl)-[6-(2-fluoro-4-hydroxy-phenyl)-3-methyl-1H-pyrazolo[3,4-b]pyridin-4-yl]-methanone]",
84,"Cc1n[nH]c2nc(-c3ccc(O)c(F)c3)cc(C(=O)N3CCNC[C@H]3Cc3ccccc3)c12 [Example 321, ((R)-2-Benzyl-piperazin-1-yl)-[6-(3-fluoro-4-hydroxy-phenyl)-3-methyl-1H-pyrazolo[3,4-b]pyridin-4-yl]-methanone]",
101,"Cc1n[nH]c2nc(-c3ccc(O)cc3)cc(C(=O)N3C[C@H](C)NC[C@@H]3C)c12 [Example 88, ((2S,5S)-2,5-Dimethyl-piperazin-1-yl)-[6-(4-hydroxy-phenyl)-3-methyl-1H-pyrazolo[3,4-b]pyridin-4-yl]-methanone]",
